Results taken from PMC10410440, “Preclinical PK investigation of a novel IDO1/TDO dual inhibitor—SHR9146 in mouse plasma and tissues by LC-MS/MS” (Frontiers in Oncology, 2023).
Values joined by “and” are separate entries in the source; they are usually repeats but may differ in a detail not shown here. Equal values may be shown once. Read-outs that look alike come from different tables or passages of the source.

Experiment: Tissue distribution of SHR9146 in mice after oral gavage of 40 mg/kg
Assay type: in vivo, ICR mice
Conditions: 40 mg/kg, 40 mg/kg oral gavage; for concentration at 1 h / concentration at 3 h / concentration at 6 h / concentration at 24 h: female, ICR, mouse, po
Method: ICR mice with body weight 16–26 g were supplied by Shanghai Lingchang Biotechnology Co., Ltd. (animal breeding license number SCXK (Shanghai) 2013-0018) and housed at Shanghai Institute of Materia Medica, Chinese Academy of Sciences [animal use license number SYXK (Shanghai) 2015-0027]. The mice used in this study were fasted overnight for 12 h but had free access to water. Food was supplied 4 h post-dose. All experiments in this study were conducted in accordance with the Guidelines for the Care and Use of Laboratory Animals of Shanghai Institute of Materia Medica, Chinese Academy of Sciences.
Another set of 30 mice were randomly assigned into five groups with equal numbers, males and females, for tissue distribution study with oral gavage at a single dose of 40 mg/kg at predetermined different time points: pre-dose and post dose at 1, 3, 6, and 24 h, respectively. The whole brain, heart, liver, spleen, lung, kidney, bladder, pancreas, testis, ovary, uterus, stomach, small intestine, adrenal gland, skin, skeletal muscle, thyroid gland, and abdominal fat tissues as well as the whole blood and plasma samples were harvested. Tissue samples were washed with 0.9% sodium chloride solution to remove the residual blood or contents, blotted on a filter paper, and stored at −70°C prior to the analysis.
Protein precipitation was selected for the pretreatment of both the plasma and the tissue homogenate prepared after thawing at room temperature, cut into pieces, and homogenized with a quintuple methanol–water mixture (1:1, v/v) for each tissue sample.
Briefly as follows, an aliquot of 25-μL plasma or tissue homogenate was spiked with 100 μL of internal standard solution (1 μg/mL for plasma, 0.2 μg/mL for tissue homogenate) and 300 μL of methanol added and vortex mixed for 60 s. The mixture was then centrifuged at 14,000 rpm at 4°C for 5.0 min, and the supernatant was diluted with methanol–water (4:1, v/v) in a ratio of 1:9 for the plasma or 1:1 for the tissue homogenate, and 5 μL of the resulting solution was injected for the LC-MS/MS analysis.
After oral administration of 40 mg/kg SHR9146, samples in different tissues at predetermined time points (pre-drug administration, post-drug administration at 1, 3, 6, and 24 h) were collected and prepared for the analysis. The drug concentrations of SHR9146 (μg/g or μg/mL) were determined for each mouse, and the mean and standard deviation were further obtained (Table S7).

[1] = kidney, Mean (n=3), read-out: SHR9146 concentration in Kidney
[2] = liver, Mean (n=3), read-out: SHR9146 concentration in Liver
[3] = lung, Mean (n=3), read-out: SHR9146 concentration in Lung
[4] = ovary, Mean (n=3), read-out: SHR9146 concentration in Ovary
[5] = pancreas, Mean (n=3), read-out: SHR9146 concentration in Pancreas
[6] = plasma, Mean (n=3), read-out: SHR9146 concentration in Plasma
[7] = skeletal muscle, Mean (n=3), read-out: SHR9146 concentration in Skeletal muscle
[8] = skin, Mean (n=3), read-out: SHR9146 concentration in Skin
[9] = small intestine, Mean (n=3), read-out: SHR9146 concentration in Small intestine
[10] = spleen, Mean (n=3), read-out: SHR9146 concentration in Spleen
[11] = stomach, Mean (n=3), read-out: SHR9146 concentration in Stomach
[12] = stomach, individual mice, read-out: SHR9146 concentration in Stomach
[13] = thyroid gland, Mean (n=3), read-out: SHR9146 concentration in thyroid gland
[14] = uterus, Mean (n=3), read-out: SHR9146 concentration in Uterus
[15] = whole blood, Mean (n=3), read-out: SHR9146 concentration in Whole blood

concentration at 1 h (kidney, 1 h, individual mice, read-out: SHR9146 concentration in Kidney): 13100 ng/g | concentration at 3 h [1]: 12700 ng/g | concentration at 6 h [1]: 1430 ng/g | concentration at 1 h (liver, 1 h, Mean (n=3), read-out: SHR9146 concentration in Liver): 24300 ng/g | concentration at 1 h (liver, 1 h, individual mice, read-out: SHR9146 concentration in Liver): 22800 ng/g | concentration at 3 h [2]: 19800 ng/g | concentration at 6 h [2]: 1950 ng/g | concentration at 24 h [2]: 37 ng/g | concentration at 24 h (liver, individual mice, read-out: SHR9146 concentration in Liver): 54 ng/g | concentration at 1 h (lung, 1 h, Mean (n=3), read-out: SHR9146 concentration in Lung): 16300 ng/g | concentration at 1 h (lung, 1 h, individual mice, read-out: SHR9146 concentration in Lung): 13600 ng/g | concentration at 3 h [3]: 25800 ng/g | concentration at 6 h [3]: 1380 ng/g | concentration at 24 h [3]: 165 ng/g | concentration at 24 h (lung, individual mice, read-out: SHR9146 concentration in Lung): 154 ng/g | concentration at 1 h (ovary, 1 h, Mean (n=3), read-out: SHR9146 concentration in Ovary): 18300 ng/g | concentration at 1 h (ovary, 1 h, individual mice, read-out: SHR9146 concentration in Ovary): 17000 ng/g | concentration at 3 h [4]: 12700 ng/g | concentration at 6 h [4]: 704 ng/g | concentration at 1 h (pancreas, 1 h, Mean (n=3), read-out: SHR9146 concentration in Pancreas): 18000 ng/g | concentration at 1 h (pancreas, 1 h, individual mice, read-out: SHR9146 concentration in Pancreas): 15900 ng/g | concentration at 3 h [5]: 12500 ng/g | concentration at 6 h [5]: 638 ng/g | concentration at 1 h (plasma, 1 h, Mean (n=3), read-out: SHR9146 concentration in Plasma): 13100 ng/mL | concentration at 1 h (plasma, 1 h, individual mice, read-out: SHR9146 concentration in Plasma): 11800 ng/mL | concentration at 3 h [6]: 9070 ng/mL | concentration at 6 h [6]: 471 ng/mL | concentration at 1 h (skeletal muscle, 1 h, Mean (n=3), read-out: SHR9146 concentration in Skeletal muscle): 7800 ng/g | concentration at 1 h (skeletal muscle, 1 h, individual mice, read-out: SHR9146 concentration in Skeletal muscle): 6440 ng/g | concentration at 3 h [7]: 5910 ng/g | concentration at 6 h [7]: 294 ng/g | concentration at 1 h (skin, 1 h, Mean (n=3), read-out: SHR9146 concentration in Skin): 11100 ng/g | concentration at 1 h (skin, 1 h, individual mice, read-out: SHR9146 concentration in Skin): 9600 ng/g | concentration at 3 h [8]: 7700 ng/g | concentration at 6 h [8]: 498 ng/g | concentration at 1 h (small intestine, 1 h, Mean (n=3), read-out: SHR9146 concentration in Small intestine): 21600 ng/g | concentration at 1 h (small intestine, 1 h, individual mice, read-out: SHR9146 concentration in Small intestine): 19000 ng/g | concentration at 3 h [9]: 16400 ng/g | concentration at 3 h (small intestine, individual mice, read-out: SHR9146 concentration in Small intestine): 14600 ng/g | concentration at 6 h [9]: 832 ng/g | concentration at 1 h (spleen, 1 h, Mean (n=3), read-out: SHR9146 concentration in Spleen): 6700 ng/g | concentration at 1 h (spleen, 1 h, individual mice, read-out: SHR9146 concentration in Spleen): 6190 ng/g | concentration at 3 h [10]: 4740 ng/g | concentration at 6 h [10]: 241 ng/g | concentration at 1 h (stomach, 1 h, Mean (n=3), read-out: SHR9146 concentration in Stomach): 27800 ng/g | concentration at 1 h (stomach, 1 h, individual mice, read-out: SHR9146 concentration in Stomach): 27400 ng/g | concentration at 3 h [11]: 27200 ng/g | concentration at 3 h [12]: 29000 ng/g | concentration at 6 h [11]: 3870 ng/g | concentration at 24 h [11]: 848 ng/g | concentration at 24 h [12]: 782 ng/g | concentration at 1 h (thyroid gland, 1 h, Mean (n=3), read-out: SHR9146 concentration in thyroid gland): 9550 ng/g | concentration at 1 h (thyroid gland, 1 h, individual mice, read-out: SHR9146 concentration in thyroid gland): 8340 ng/g | concentration at 3 h [13]: 6940 ng/g | concentration at 6 h [13]: 378 ng/g | concentration at 1 h (uterus, 1 h, Mean (n=3), read-out: SHR9146 concentration in Uterus): 10700 ng/g | concentration at 1 h (uterus, 1 h, individual mice, read-out: SHR9146 concentration in Uterus): 9740 ng/g | concentration at 3 h [14]: 6040 ng/g | concentration at 6 h [14]: 363 ng/g | concentration at 1 h (whole blood, 1 h, Mean (n=3), read-out: SHR9146 concentration in Whole blood): 8660 ng/mL | concentration at 1 h (whole blood, 1 h, individual mice, read-out: SHR9146 concentration in Whole blood): 7360 ng/mL | concentration at 3 h [15]: 6190 ng/mL | concentration at 6 h [15]: 298 ng/mL | SHR9146 concentration in Bladder (male, 1 h, individual mice): 13.766 µg/g and 11.095 µg/g | SHR9146 concentration in Kidney (male, 1 h, individual mice): 15.501 µg/g and 7.908 µg/g | SHR9146 concentration in Liver (male, 1 h, individual mice): 23.893 µg/g and 14.099 µg/g | SHR9146 concentration in Lung (male, 1 h, individual mice): 16.090 µg/g and 8.210 µg/g
SMILES: OCCn1cc(-c2ccc(N3CCC([C@H]4c5c(F)cccc5-c5cncn54)CC3)cc2)cn1 [SHR9146]
